Columns and labels:
[1] = Euglycemic glucose-clamp: steady state serum hormone levels; format: in vivo, human
Method: (§1) J. Physiol. 237:E214-E223 (1979). With this technique, an antecuubital vein is cannulated in an antegrade manner to administer the infusates. A dorsal hand vein is cannulated in a retrograde fashion and kept in a warming device (70° C.) to facilitate venous sampling and provide arterialized venous blood After insertion of the catheters, [3-3H]-glucose is infused for at least 30 minutes before initiating the hormone infusion. At the onset of hormone infusion, a priming dose of either insulin or proinsulin is administered during the initial 10 minutes in a logarithmically decreasing manner to acutely raise the serum hormone level. The amount of insulin or proinsulin given during this initial 10 minute period is roughly twice that given during each subsequent 10 minute interval by a continuous hormone infusion The serum glucose is maintained between 80 and 90 mg/dl throughout the study period with a coefficient of variation of less than 5% by means of a variable rate of infusion of 20% dextrose. The overall glucose disposal rate is assessed isotopically for each 20 minute interval of the study.
Each subject underwent a total of 8 euglycemic glucose clamp studies, each performed on a separate day. Insulin infusion rates of 15, 40, 120, and 240 mU/M2/min were utilized to construct a dose response curve for insulin action. With this approach an attempt was made to achieve steady state insulin concentrations of 40 to 800 μU/ml (Table 1). Each subject was also studied with four different proinsulin infusions. […] Hepatic glucose output was quantitated in the basal state and during each clamp study using a primed continuous infusion of [3-3H]glucose. […] The dose response relationship for insulin and proinsulin mediated suppression of hepatic glucose output was determined by calculating the percent suppression of basal hepatic glucose output at each steady state hormone concentration obtained during the euglycemic clamp studies.

hepatic glucose output = experiment: Euglycemic glucose-clamp: suppression of hepatic glucose output; format: in vivo, human
Method: as §1, with “The amount of insulin or proinsulin given during this initial 10 minute period is roughly twice that given during each subsequent 10 minute interval by a continuous hormone infusion The serum glucose is maintained between 80 and 90 mg/dl throughout the study period with a coefficient of variation of less than 5% by means of a variable rate of infusion of 20% dextrose.” left out
Each subject underwent a total of 8 euglycemic glucose clamp studies, each performed on a separate day. […] Hepatic glucose output was quantitated in the basal state and during each clamp study using a primed continuous infusion of [3-3H]glucose. […] The dose response relationship for insulin and proinsulin mediated suppression of hepatic glucose output was determined by calculating the percent suppression of basal hepatic glucose output at each steady state hormone concentration obtained during the euglycemic clamp studies.

glucose disposal = experiment: Euglycemic glucose-clamp: glucose disposal rate; format: in vivo, human
Method: On one day, each subject received a 5.0 μg/M^2 /min (120 mU/M^2 /min) insulin infusion over a 6 hour period. […] Each proinsulin infusion was carried out for 300 minutes, with the quantitation of its biological effects based on measurements made during the 5th hour of each study. […]

[2] = after stopping 5 hour infusion
Source text: (§2) At this point, the hormone infusion was abruptly stopped, and the glucose concentration was maintained constant until the biologic effects of the infused hormone were no longer detectable.

[3] = tested on: peripheral glucose uptake; experiment: Kinetics of activation and deactivation of effect on peripheral glucose uptake; format: in vivo, human
Source text: Marked differences between the two hormones were noted when biologic activity was studied.
as §2

[4] = tested on: hepatic glucose output (HGO); experiment: Kinetics of deactivation of effect on hepatic glucose output (HGO); format: in vivo, human
Source text: as §2

[5] = tested on: hepatic glucose production; experiment: Subcutaneous administration to Type II diabetic subjects: hepatic glucose production; format: in vivo, human; settings: 0.2 U/kg s.c.
[6] = tested on: fasting Type II diabetic patients; experiment: Subcutaneous administration to fasting Type II diabetic patients: plasma glucose; format: in vivo, human; settings: for Plasma Glucose, Mean: mean total dose 18.7 I.U. (0.2 U/kg s.c.)
HGO = tested on: HGO
Source text: For example, in non-insulin dependent diabetes mellitus (NIDDM), one of the major metabolic abnormalities that maintains the resultant hyperglycemic state is accelerated hepatic glucose production.

[7] = five Type II subjects, 0.2 U/kg s.c.
[8] = tested on: insulin-degrading proteases; settings: subcutaneous injection site
[9] = Study A (insulin 15 mU/M^2/min, proinsulin 2.75 μg/M^2/min), Mean ± SE
[10] = after stopping 5 hour infusion (human insulin 0.55, human proinsulin 2.75 μg/M2/min)

human proinsulin: human proinsulin, available by organic synthesis, isolation from human pancreas or recombinant DNA methodology
Steady State Hormone Levels (Mean ± SEM) ([1]; infusion A: insulin 0.63, proinsulin 2.75 μg/M^2/min): 2.55 ± 0.16 pmol/mL
Steady State Hormone Levels (Mean ± SEM) ([1]; infusion B: insulin 1.67, proinsulin 7.5 μg/M^2/min): 6.24 ± 0.49 pmol/mL
Steady State Hormone Levels (Mean ± SEM) ([1]; infusion C: insulin 5.0, proinsulin 22.5 μg/M^2/min): 21.2 ± 1.4 pmol/mL
Steady State Hormone Levels (Mean ± SEM) ([1]; infusion D: insulin 10.0, proinsulin 45.0 μg/M^2/min): 40.0 ± 1.9 pmol/mL
Suppression of Hepatic Glucose Output (%) (hepatic glucose output; [9]): 80 ± 6%
Serum hormone concentration required to achieve 90% suppression of hepatic glucose output (hepatic glucose output; healthy subjects, steady state, euglycemic clamp): 3.35 pmol/mL
Time to reach steady state rates of glucose disposal (glucose disposal; 5 subjects, insulin 5.0 μg/M^2/min over 6 h, proinsulin 22.5 μg/M^2/min over 8 h): ≤ 5 h
Glucose Disposal Rate (glucose disposal; [9]): 122 ± 11 mg/M^2/min
Time by which hormone concentrations are below biologically effective values [2]: ≤ 90 minutes
Decay of biologic effect to stimulate glucose disposal, more slowly than human insulin ([3]; after stopping 5 hour infusion): 2.2 times
t 1/2 of deactivation of effects on glucose disposal [3, 10]: 1.45 ± 0.233 h
Time needed to reach steady state biologic effects compared to human insulin ([3]; both stimulation of glucose disposal and inhibition of HGO): much slower
Time to steady state effect to stimulate glucose disposal ([3]; continuous infusion): 5 h
Time until glucose disposal rates returned to basal ([3]; following cessation of 2.75 μg/M2/min infusion): 160 min
Time until a decline in effect to suppress HGO could be detected ([4]; after infusion stopped): 120 min
Time until HGO returned to baseline values, extrapolation of the curve ([4]; after stopping 5 hour infusion): > 6 h
t 1/2 of deactivation of effect to inhibit HGO [4, 10]: 3.83 ± 0.317 h
Effect on elevated hepatic glucose production [5]: suppressed into the normal range
Time of maximum suppression of hepatic glucose production [5]: 264 ± 31 min
Minimum hepatic glucose production ([5]; basal 3.83±0.6): 1.21 ± 0.2 mg/kg/min
Blood glucose level of each subject ([6]; 0.2 U/kg s.c., normal range about 80-110 mg/dl): lowered to a normal range
Hypoglycemia among subjects ([6]; five Type II subjects, 0.2 U/kg s.c., insulin: by approximately 300 minutes): hypoglycemia nowhere evidenced
Plasma Glucose, Mean ([6]; mean of subjects with values, 360 min after injection): 102 mg/dL
Plasma Glucose, Mean ([6]; mean of subjects with values, 400 min after injection): 95 mg/dL
Plasma Glucose, Mean ([6]; mean of subjects with values, 440 min after injection): 92 mg/dL
Plasma Glucose, Mean ([6]; mean of subjects with values, 480 min after injection): 96 mg/dL
Plasma Glucose, Mean ([6]; mean of subjects, 0 min after injection): 245 mg/dL
Plasma Glucose, Mean ([6]; mean of subjects, 40 min after injection): 235 mg/dL
Plasma Glucose, Mean ([6]; mean of subjects, 80 min after injection): 221 mg/dL
Plasma Glucose, Mean ([6]; mean of subjects, 120 min after injection): 205 mg/dL
Plasma Glucose, Mean ([6]; mean of subjects, 160 min after injection): 188 mg/dL
Plasma Glucose, Mean ([6]; mean of subjects, 280 min after injection): 129 mg/dL
Plasma Glucose, Mean ([6]; mean of subjects, 300 min after injection): 113 mg/dL
Plasma Glucose ([6]; subject four, total dose 16.3 I.U. (0.2 U/kg s.c.), 0 min after injection): 290 mg/dL
Plasma Glucose ([6]; subject four, total dose 16.3 I.U. (0.2 U/kg s.c.), 40 min after injection): 282 mg/dL
Plasma Glucose ([6]; subject four, total dose 16.3 I.U. (0.2 U/kg s.c.), 80 min after injection): 272 mg/dL
Plasma Glucose ([6]; subject four, total dose 16.3 I.U. (0.2 U/kg s.c.), 120 min after injection): 250 mg/dL
Plasma Glucose ([6]; subject four, total dose 16.3 I.U. (0.2 U/kg s.c.), 160 min after injection): 230 mg/dL
Plasma Glucose ([6]; subject four, total dose 16.3 I.U. (0.2 U/kg s.c.), 200 min after injection): 200 mg/dL
Plasma Glucose ([6]; subject four, total dose 16.3 I.U. (0.2 U/kg s.c.), 240 min after injection): 183 mg/dL
Plasma Glucose ([6]; subject four, total dose 16.3 I.U. (0.2 U/kg s.c.), 280 min after injection): 152 mg/dL
Plasma Glucose ([6]; subject four, total dose 16.3 I.U. (0.2 U/kg s.c.), 300 min after injection): 127 mg/dL
Plasma Glucose ([6]; subject four, total dose 16.3 I.U. (0.2 U/kg s.c.), 360 min after injection): 101 mg/dL
Plasma Glucose ([6]; subject four, total dose 16.3 I.U. (0.2 U/kg s.c.), 400 min after injection): 82 mg/dL
Plasma Glucose ([6]; subject four, total dose 16.3 I.U. (0.2 U/kg s.c.), 440 min after injection): 77 mg/dL
Plasma Glucose ([6]; subject one, total dose 14.8 I.U. (0.2 U/kg s.c.), 0 min after injection): 213 mg/dL
Plasma Glucose ([6]; subject one, total dose 14.8 I.U. (0.2 U/kg s.c.), 40 min after injection): 203 mg/dL
Plasma Glucose ([6]; subject one, total dose 14.8 I.U. (0.2 U/kg s.c.), 80 min after injection): 187 mg/dL
Plasma Glucose ([6]; subject one, total dose 14.8 I.U. (0.2 U/kg s.c.), 160 min after injection): 140 mg/dL
Plasma Glucose ([6]; subject one, total dose 14.8 I.U. (0.2 U/kg s.c.), 240 min after injection): 81 mg/dL
Plasma Glucose ([6]; subject one, total dose 14.8 I.U. (0.2 U/kg s.c.), 280 min after injection): 77 mg/dL
Plasma Glucose ([6]; subject one, total dose 14.8 I.U. (0.2 U/kg s.c.), 300 min after injection): 80 mg/dL
Plasma Glucose ([6]; subject one, total dose 14.8 I.U. (0.2 U/kg s.c.), 320 min after injection): 80 mg/dL
Plasma Glucose ([6]; subject three, total dose 27.2 I.U. (0.2 U/kg s.c.), 0 min after injection): 159 mg/dL
Plasma Glucose ([6]; subject three, total dose 27.2 I.U. (0.2 U/kg s.c.), 40 min after injection): 144 mg/dL
Plasma Glucose ([6]; subject three, total dose 27.2 I.U. (0.2 U/kg s.c.), 120 min after injection): 128 mg/dL
Plasma Glucose ([6]; subject three, total dose 27.2 I.U. (0.2 U/kg s.c.), 200 min after injection): 110 mg/dL
Plasma Glucose ([6]; subject three, total dose 27.2 I.U. (0.2 U/kg s.c.), 240 min after injection): 101 mg/dL
Plasma Glucose ([6]; subject three, total dose 27.2 I.U. (0.2 U/kg s.c.), 280 min after injection): 98 mg/dL
Plasma Glucose ([6]; subject three, total dose 27.2 I.U. (0.2 U/kg s.c.), 300 min after injection): 88 mg/dL
Plasma Glucose ([6]; subject three, total dose 27.2 I.U. (0.2 U/kg s.c.), 360 min after injection): 84 mg/dL
Plasma Glucose ([6]; subject three, total dose 27.2 I.U. (0.2 U/kg s.c.), 400 min after injection): 85 mg/dL
Plasma Glucose ([6]; subject three, total dose 27.2 I.U. (0.2 U/kg s.c.), 440 min after injection): 86 mg/dL
Plasma Glucose ([6]; subject three, total dose 27.2 I.U. (0.2 U/kg s.c.), 480 min after injection): 88 mg/dL
Plasma Glucose ([6]; subject two, total dose 20.0 I.U. (0.2 U/kg s.c.), 0 min after injection): 231 mg/dL
Plasma Glucose ([6]; subject two, total dose 20.0 I.U. (0.2 U/kg s.c.), 40 min after injection): 217 mg/dL
Plasma Glucose ([6]; subject two, total dose 20.0 I.U. (0.2 U/kg s.c.), 80 min after injection): 201 mg/dL
Plasma Glucose ([6]; subject two, total dose 20.0 I.U. (0.2 U/kg s.c.), 120 min after injection): 191 mg/dL
Plasma Glucose ([6]; subject two, total dose 20.0 I.U. (0.2 U/kg s.c.), 160 min after injection): 182 mg/dL
Plasma Glucose ([6]; subject two, total dose 20.0 I.U. (0.2 U/kg s.c.), 240 min after injection): 164 mg/dL
Plasma Glucose ([6]; subject two, total dose 20.0 I.U. (0.2 U/kg s.c.), 280 min after injection): 143 mg/dL
Plasma Glucose ([6]; subject two, total dose 20.0 I.U. (0.2 U/kg s.c.), 300 min after injection): 134 mg/dL
Plasma Glucose ([6]; subject two, total dose 20.0 I.U. (0.2 U/kg s.c.), 360 min after injection): 128 mg/dL
Plasma Glucose ([6]; subject two, total dose 20.0 I.U. (0.2 U/kg s.c.), 400 min after injection): 117 mg/dL
Plasma Glucose ([6]; subject two, total dose 20.0 I.U. (0.2 U/kg s.c.), 440 min after injection): 112 mg/dL
Plasma Glucose ([6]; subject two, total dose 20.0 I.U. (0.2 U/kg s.c.), 480 min after injection): 104 mg/dL
Plasma Glucose ([6]; subject two, total dose 20.0 I.U. (0.2 U/kg s.c.), 500 min after injection): 100 mg/dL
Plasma Glucose ([6]; subject, total dose 15.0 I.U. (0.2 U/kg s.c.), 0 min after injection): 332 mg/dL
Plasma Glucose ([6]; subject, total dose 15.0 I.U. (0.2 U/kg s.c.), 40 min after injection): 328 mg/dL
Plasma Glucose ([6]; subject, total dose 15.0 I.U. (0.2 U/kg s.c.), 80 min after injection): 308 mg/dL
Plasma Glucose ([6]; subject, total dose 15.0 I.U. (0.2 U/kg s.c.), 120 min after injection): 288 mg/dL
Plasma Glucose ([6]; subject, total dose 15.0 I.U. (0.2 U/kg s.c.), 160 min after injection): 272 mg/dL
Plasma Glucose ([6]; subject, total dose 15.0 I.U. (0.2 U/kg s.c.), 200 min after injection): 247 mg/dL
Plasma Glucose ([6]; subject, total dose 15.0 I.U. (0.2 U/kg s.c.), 240 min after injection): 210 mg/dL
Plasma Glucose ([6]; subject, total dose 15.0 I.U. (0.2 U/kg s.c.), 280 min after injection): 174 mg/dL
Plasma Glucose ([6]; subject, total dose 15.0 I.U. (0.2 U/kg s.c.), 360 min after injection): 94 mg/dL
Expected suppression of HGO in NIDDM subjects (HGO; circulating concentration approximately 1.5-2 pmol/ml): approximately 50%
Expected duration of adequate glycemic control (HGO; sustained level 1.5-2 pmol/ml for about 3 hours by CSII or single s.c. injection): 8 to 10 h
Mean peak hormone blood level [7]: 6.8 pmol/mL
Time of mean peak hormone blood level [7]: 230 ± 33 min
Degradation by insulin-degrading proteases [8]: not degraded
